Measured values taken from patent US20240239796A1, “CRYSTALLINE POLYMORPHS OF EPIDERMAL GROWTH FACTOR RECEPTOR INHIBITOR, AND COMPOSITIONS AND METHODS THEREOF” (Crimson BioPharm Inc., priority 2022, published 2024).
Read-outs that look alike come from different tables or passages of the source. Values belong to the compound of their own block, whether it stands above or below them.

Key:
Type in all cases: physicochemical
Water activity study = assay: Water activity study
Method: A certain amount (e.g., ˜70 mg) of crystalline Form I was stirred in 500 μL of acetone-water mixtures with different water content (5%, 10%, 30%, 50%, 70% and 90%) at RT (˜20° C.) for 3, 7 or 8 days. Residual solids were collected and characterized.

[1] = Inter-conversion study (competitive slurry); details: for form after slurry: ACN-water (1/9); for Slurry at 50° C. 1 or 7 d (wet cake) / Slurry at RT (~20° C.) 3 d (wet cake): competitive slurry in IPA, resulting form; for Form at 7 d: slurry in ACN/water 1/9 (v/v)
Method: (20 mg/mL) and RT (10 mg/mL), and in ACN-water (1/9) at 50° C. (10 mg/mL) and RT (5 mg/mL).
The mixture of crystalline Form I and crystalline Form V of the sample was suspended in IPA at 50° C. (20 mg/mL) and RT (5 mg/mL).
The residual solids from both mixtures were obtained and characterized.

Slurry study = details: XRPD; for Form of wet cake at 1 day: 50° C.; for Form of wet cake at 4 days: RT (~20° C.), ~25 mg/mL
Method: Appropriate amount of crystalline Form I was added into different solvents to make suspension. The suspensions were kept stirring at room temperature (RT, ˜20° C.) or 50° C., respectively. Solid samples were collected and analyzed by XRPD at a specific time. If new XRPD patterns were identified, the sample was further analyzed by DSC and TGA.

Rough solubility testing = details: for solubility: thermodynamic from solid, ~20° C., read-out: Solubility of Tosylate (mg/mL, ~20° C.); for solubility (in words): RT (~20° C.)
Method: About 2 mg of crystalline Form I was weighed into glass vials, and then different selected solvents were added in the vial stepwise until all solid was dissolved. This experiment was conducted by manual dilution combined with visual observation at ˜20° C. The total volume of solvent added was recorded.

[2] = Stability study (grinding, high humidity)
Method: A certain amount (e.g., ˜10 mg) of crystalline Form I was ground for 2 min or put at 25° C./92.5% RH for 2 weeks. Then the sample was tested by XRPD to determine the physical stability.

[3] = Form conversion on heating / desolvation (XRPD, FIG. 5, FIG. 8)
[4] = Dynamic moisture sorption analysis (DVS)
Method: DVS was determined using DVS Intrinsic (SMS, UK). A sample was tested at a targeted relative humidity (RH) of 10 to 90% full cycle in step mode. The analysis was performed in 10% RH increments: • Equilibrium: 60 min; • RH (%) measurement points: • Sorption: 0, 10, 20, 30, 40, 50, 60, 70, 80, 90 • Desorption: 80, 70, 60, 50, 40, 30, 20, 10, 0.

[5] = slurry in Acetone/water 1/1 (v/v), water activity 0.93, RT
[6] = slurry in Acetone/water 1/9 (v/v), water activity 0.98, RT
[7] = slurry in Acetone/water 3/7 (v/v), water activity 0.95, RT
[8] = slurry in Acetone/water 7/3 (v/v), water activity 0.88, RT
[9] = slurry in Acetone/water 9/1 (v/v), water activity 0.72, RT
[10] = slurry in Acetone/water 19/1 (v/v), water activity 0.31, RT

- Form at 3 d (Water activity study; [5]): Form V
- Form at 7 d (Water activity study; [5]): Form V
- Form at 3 d (Water activity study; [6]): Form I
- Form at 7 d (Water activity study; [6]): Form I
- Form at 3 d (Water activity study; [7]): Form V
- Form at 7 d (Water activity study; [7]): Form V
- Form at 3 d (Water activity study; [8]): Form V
- Form at 7 d (Water activity study; [8]): Form V
- Form at 3 d (Water activity study; [9]): Form V
- Form at 7 d (Water activity study; [9]): Form V
- Form at 3 d (Water activity study; [10]): Form I
- Form at 7 d (Water activity study; [10]): Form VII
- Form at 8 d (Water activity study; [10]): Form V
- form after slurry ([1]; 50° C.): crystalline Form III
- form after slurry ([1]; RT): crystalline Form VI
- relative stability among crystal forms ([1]; polymorph screening, anhydrate forms): most stable anhydrate form
- Form of wet cake at 1 day (Slurry study; slurry in ACN): Form I
- Form of wet cake at 4 days (Slurry study; slurry in ACN): Form I
- Form of wet cake at 1 day (Slurry study; slurry in Acetone): Form I
- Form of wet cake at 4 days (Slurry study; slurry in Acetone): Form I
- Form of wet cake at 1 day (Slurry study; slurry in EA): Form I
- Form of wet cake at 4 days (Slurry study; slurry in EA): Form I
- Form of wet cake at 1 day (Slurry study; slurry in EtOH): Form I
- Form of wet cake at 4 days (Slurry study; slurry in EtOH): Form I
- Form of wet cake at 1 day (Slurry study; slurry in Heptane): Form I
- Form of wet cake at 4 days (Slurry study; slurry in Heptane): Form I
- Form of wet cake at 1 day (Slurry study; slurry in IPA): Form I
- Form of wet cake at 4 days (Slurry study; slurry in IPA): Form I
- Form of wet cake at 1 day (Slurry study; slurry in IPAC): Form I
- Form of wet cake at 4 days (Slurry study; slurry in IPAC): Form I
- Form of wet cake at 1 day (Slurry study; slurry in Isobutanol): Form I
- Form of wet cake at 4 days (Slurry study; slurry in Isobutanol): Form I
- Form of wet cake at 1 day (Slurry study; slurry in MEK): Form I
- Form of wet cake at 4 days (Slurry study; slurry in MEK): Form I
- Form of wet cake at 1 day (Slurry study; slurry in MTBE): Form I
- Form of wet cake at 4 days (Slurry study; slurry in MTBE): Form I
- Form of wet cake at 1 day (Slurry study; slurry in THF): Form I
- Form of wet cake at 4 days (Slurry study; slurry in THF): Form I
- Form of wet cake at 1 day (Slurry study; slurry in Toluene): Form I
- Form of wet cake at 4 days (Slurry study; slurry in Toluene): Form I
- Form of wet cake at 1 day (Slurry study; slurry in Water): Form I
- Form of wet cake at 4 days (Slurry study; slurry in Water): Form I
- solubility (Rough solubility testing; ACN (acetonitrile), organic solvent or mixture, solvent ACN): ~2.2 mg/mL
- solubility (in words) (Rough solubility testing; in MeOH and DCM): relatively high solubility
- solubility (in words) (Rough solubility testing; in the other single solvents (not MeOH, DCM)): very low solubility
- solubility (Rough solubility testing; organic solvent or mixture, solvent Acetone): ~0.95 mg/mL
- solubility (Rough solubility testing; organic solvent or mixture, solvent DCM): ~5.1 mg/mL
- solubility (Rough solubility testing; organic solvent or mixture, solvent EA): < 1 mg/mL
- solubility (Rough solubility testing; organic solvent or mixture, solvent EtOH): ~1.9 mg/mL
- solubility (Rough solubility testing; organic solvent or mixture, solvent Heptane): < 1 mg/mL
- solubility (Rough solubility testing; organic solvent or mixture, solvent IPA): < 1.11 mg/mL
- solubility (Rough solubility testing; organic solvent or mixture, solvent IPAC): < 1.2 mg/mL
- solubility (Rough solubility testing; organic solvent or mixture, solvent Isobutanol): < 1 mg/mL
- solubility (Rough solubility testing; organic solvent or mixture, solvent MEK): ~0.92 mg/mL
- solubility (Rough solubility testing; organic solvent or mixture, solvent MTBE): < 1.1 mg/mL
- solubility (Rough solubility testing; organic solvent or mixture, solvent MeOH): ~27.3 mg/mL
- solubility (Rough solubility testing; organic solvent or mixture, solvent THF): < 1.14 mg/mL
- solubility (Rough solubility testing; organic solvent or mixture, solvent Toluene): < 1.2 mg/mL
- solubility (Rough solubility testing; solvent Water): < 1.02 mg/mL
- solid-state stability ([2]; after stressing with temperature and high RH): good solid-state stability
- Physical stability (form change by XRPD) ([2]; high humidity, 25° C./92.5% RH for 2 weeks): No form change
- Physical stability (form change by XRPD) ([2]; mechanical stress (grinding, 2 min)): No form change
Compound: C=CC(=O)Nc1cc(Nc2nccc(-n3ccc4cccnc43)n2)c(OC)cc1N(C)CCN(C)C.Cc1ccc(S(=O)(=O)O)cc1 [Form I, N-(5-((4-(1H-pyrrolo[2,3-b]pyridin-1-yl)pyrimidin-2-yl)amino)-2-((2-(dimethylamino)ethyl)(methyl)amino)-4-methoxyphenyl)acrylamide tosylate salt]

- form conversion on heating ([3]; heated to 200° C.): convert to crystalline Form III
Compound: C=CC(=O)Nc1cc(Nc2nccc(-n3ccc4cccnc43)n2)c(OC)cc1N(C)CCN(C)C.Cc1ccc(S(=O)(=O)O)cc1 [Form IV, N-(5-((4-(1H-pyrrolo[2,3-b]pyridin-1-yl)pyrimidin-2-yl)amino)-2-((2-(dimethylamino)ethyl)(methyl)amino)-4-methoxyphenyl)acrylamide tosylate salt]

- water sorption ([4]; 80% RH and 25° C.): 0.72%
- hygroscopicity ([4]; DVS, 80% RH and 25° C.): slightly hygroscopic
- crystalline form change after DVS test ([4]; after DVS test): no crystalline form change
Compound: C=CC(=O)Nc1cc(Nc2nccc(-n3ccc4cccnc43)n2)c(OC)cc1N(C)CCN(C)C.Cc1ccc(S(=O)(=O)O)cc1 [Form VI, N-(5-((4-(1H-pyrrolo[2,3-b]pyridin-1-yl)pyrimidin-2-yl)amino)-2-((2-(dimethylamino)ethyl)(methyl)amino)-4-methoxyphenyl)acrylamide tosylate salt]

- Slurry at 50° C. 1 or 7 d (wet cake) ([1]; 50° C.): From I
- Slurry at RT (~20° C.) 3 d (wet cake) ([1]; RT): Form I
Compound: C=CC(=O)Nc1cc(Nc2nccc(-n3ccc4cccnc43)n2)c(OC)cc1N(C)CCN(C)C.Cc1ccc(S(=O)(=O)O)cc1 [Form I and V (1:1)]

- Slurry at 50° C. 1 or 7 d (wet cake) ([1]; 50° C.): Form I
- Slurry at RT (~20° C.) 3 d (wet cake) ([1]; RT): Form I
- Form at 7 d ([1]; 50° C.): Form III
- Form at 7 d ([1]; RT (~20° C.)): Form VI
Compound: C=CC(=O)Nc1cc(Nc2nccc(-n3ccc4cccnc43)n2)c(OC)cc1N(C)CCN(C)C.Cc1ccc(S(=O)(=O)O)cc1 [Form I and III (1:1)]

- form conversion after desolvation ([3]; desolvation at 170° C.): transform to crystalline Form III
Compound: C=CC(=O)Nc1cc(Nc2nccc(-n3ccc4cccnc43)n2)c(OC)cc1N(C)CCN(C)C.Cc1ccc(S(=O)(=O)O)cc1 [Form II, N-(5-((4-(1H-pyrrolo[2,3-b]pyridin-1-yl)pyrimidin-2-yl)amino)-2-((2-(dimethylamino)ethyl)(methyl)amino)-4-methoxyphenyl)acrylamide tosylate salt]
